Data taken from patent publication US11752169B2, “Treatment of pain with polysulfated polysaccharides” (PARADIGM BIOPHARMACEUTICALS LTD., priority 2018, dated 2023).

Assays:
[1] = system: IL-6 mRNA; test: real-time RT-PCR for IL-6 mRNA in KOA osteocyte-like cultures; type: cell-based, human; settings: PPS 1 μg/mL + rhTNFα 1 ng/mL, 48 h (FIG. 17)
Experimental: Cryopreserved cells from each donor (all at passage 0 or 1) were thawed and cultured for 10d in T75 cm^2 tissue culture flasks. Once confluent, cells were removed by collagenase/dispase digestion, washed by centrifugation, counted and adjusted to 5×10^5 cells/mL. Cells were then seeded into either 12-well tissue culture trays or into 8-well chamber slides, at 1×10^5 and 2×10^4 cells/well, respectively. After 24 h, media were replaced with osteogenic differentiation medium, consisting of αMEM, 5% v/v foetal calf serum (FCS), 1.8 mM potassium dihydrogen phosphate (KH2PO4), 100 μM Ascorbate-2-phosphate (As2P), 10 mM HEPES, 10^−8 M Dexamethasone and 0.2 mM L-Glutamine. During the differentiation process, samples were collected at days 3, 14 and 28 in Trizol reagent for total RNA preparation and gene expression analysis (see below). […]
Following three days of pre-treatment of osteocyte-like cultures with PPS and a further 48 h treatment period, total RNA was isolated for the purposes of analysing gene expression using real-time RT-PCR. While the quality of the RNA isolated from all cultures appeared to be high, as adjudged by Nanodrop micro-spectrophotometry showing the ratio of absorbance at 260 nm/280 nm generally being between 1.9 and 2.0, there was a consistent inability to generate complementary DNA (cDNA) from any samples exposed to 5 or 50 μg/mL PPS, except in one or two samples. […]

[2] = system: NGF mRNA; test: real-time RT-PCR for NGF mRNA in osteocyte-like cultures; type: cell-based, human
Experimental: (§1) FIG. 23. Effects of combinations of rhTNF and PPS on NGF gene expression in osteocyte-like cultures. Human differentiated osteocyte-like cultures were either untreated or pretreated with PPS (0.1 or 1.0 μg/mL) for 24 h, then with or without rhTNFα (1 ng/mL) for a further 48 h, and then real-time RT-PCR was performed for NGF mRNA. Data are mean+SD of triplicate real-time RT-PCR reactions normalised to the mRNA expression of the housekeeping gene ACTB.
as §1, with “28.” for “23.”
Cryopreserved cells from each donor (all at passage 0 or 1) were thawed and cultured for 10d in T75 cm^2 tissue culture flasks. Once confluent, cells were removed by collagenase/dispase digestion, washed by centrifugation, counted and adjusted to 5×10^5 cells/mL. Cells were then seeded into either 12-well tissue culture trays or into 8-well chamber slides, at 1×10^5 and 2×10^4 cells/well, respectively. After 24 h, media were replaced with osteogenic differentiation medium, consisting of αMEM, 5% v/v foetal calf serum (FCS), 1.8 mM potassium dihydrogen phosphate (KH2PO4), 100 μM Ascorbate-2-phosphate (As2P), 10 mM HEPES, 10^−8 M Dexamethasone and 0.2 mM L-Glutamine. During the differentiation process, samples were collected at days 3, 14 and 28 in Trizol reagent for total RNA preparation and gene expression analysis (see below). Cultures seeded into chamber slides were examined for in vitro mineralisation using the Alizarin Red staining technique, as previously described.
PPS was manufactured by bene pharmaChem GmbH & Co. KG, Geretstried, Germany. This was dissolved in sterile PBS as a stock solution at 1.0 mg/mL. Differentiated cells were either untreated or pre-treated with final concentrations of PPS at 1, 5 or 50 μg/mL in culture medium for 72 h. The tested doses of PPS were based on the effective and maximally active levels published in a previous study. Media were then replaced with the same concentrations of PPS with or without the addition of recombinant human (rh) TNFα (1 ng/mL) and then cultured for a further 48 h. Culture supernatants were collected and total RNA and cDNA prepared, as described below. This generated 8 conditions (Untreated, TNF, PPS1, PPS5, PPS50, TNF+PPS1, TNF+PPS5, TNF+PPS50) from 6 donors.
Total RNA was prepared from Trizol lysates, according to the manufacturer's instructions, with the exception that due to evidence for PPS interference in the generation of assayable cDNA, RNA precipitates were washed 3 times in 75% ethanol instead of the usual single wash step, in an attempt to remove residual PPS. RNA preparations were tested for yield and purity using a Nanodrop microvolume spectrophotometer (Thermo Fisher). One microgram of RNA from each sample was reverse transcribed using a Superscript™ II kit (Thermo Fisher), as per manufacturer's instructions. Real-time RT-PCR was performed for genes including Nerve Growth Factor (NGF), its receptors NTRK1 (TRKA) and NGFR (P75NTR), MMP13, Cyclooxygenase-2 (COX-2), Interleukin-6 (IL-6) RANKL, OPG, OCN, DMP1 and SOST, relative to housekeeping gene (18S, ACTB) expression. […]

Sodium Pentosan Polysulfate [PPS]
effect of rhTNFα on IL-6 mRNA expression [1]: inhibited
NGF mRNA levels, PPS in combination with rhTNFα ([2]; KOA1 and KOA2 cultures, PPS 1 μg/mL + rhTNFα 1 ng/mL, 48 h, relative to 18S rRNA (FIG. 16)): strongly suppressed
NGF mRNA levels, PPS alone ([2]; KOA1 and KOA2 cultures, PPS 1 μg/mL, 72 h pre-treatment + 48 h, relative to 18S rRNA (FIG. 16)): strongly suppressed
NGF expression (mRNA) in the presence of TNFα ([2]; PPS at 1 μg/mL, 24 h pre-treatment, rhTNFα 1 ng/mL 48 h, normalised to ACTB (FIG. 23)): significantly reduced
NGF expression (mRNA) in the presence of TNFα ([2]; PPS at 1 mg/mL (so in the source), FIG. 28, normalised to ACTB): significantly reduced
basal NGF mRNA levels ([2]; PPS at both 0.1 and 1 μg/mL, 24 h pre-treatment + 48 h, normalised to ACTB (FIG. 23)): no apparent effect
